Laboratory results taken from ChEMBL document CHEMBL4742389, “Cyclohexyl benzamide compounds” (2019).

Key:
[1] = biological target: T1, Probable G-protein coupled receptor 142 (Homo sapiens) (UniProt Q7Z601); assay: Agonist activity at human GPR142 receptor expressed in HEK293 cells assessed as accumulation of inositol phosphate incubated for 1 hr followed by IP1-d2 addition by HTRF assay relative to control; assay type: functional, cell-based; settings: filed as agonist
T1 sequence (whole entry): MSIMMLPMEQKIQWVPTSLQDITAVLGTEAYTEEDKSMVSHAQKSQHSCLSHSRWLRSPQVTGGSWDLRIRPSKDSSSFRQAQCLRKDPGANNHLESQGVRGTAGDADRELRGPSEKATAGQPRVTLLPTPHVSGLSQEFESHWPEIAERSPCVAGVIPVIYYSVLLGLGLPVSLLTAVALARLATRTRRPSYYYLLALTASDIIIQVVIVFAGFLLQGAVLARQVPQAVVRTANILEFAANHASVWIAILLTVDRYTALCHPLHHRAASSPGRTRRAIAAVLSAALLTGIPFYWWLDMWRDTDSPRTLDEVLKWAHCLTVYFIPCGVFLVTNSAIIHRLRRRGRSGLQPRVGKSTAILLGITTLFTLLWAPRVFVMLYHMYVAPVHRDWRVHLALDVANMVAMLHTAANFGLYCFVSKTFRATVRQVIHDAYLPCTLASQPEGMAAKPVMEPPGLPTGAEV

[2] = biological target: T2, Probable G-protein coupled receptor 142 (Homo sapiens, UniProt Q7Z601); assay: Agonist activity at human GPR142 receptor expressed in HEK293 cells assessed as accumulation of inositol phosphate incubated for 1 hr followed by IP1-d2 addition by HTRF assay; assay type: functional, cell-based
T2 sequence (Q7Z601 whole entry): T1 sequence (whole entry)

Mus musculus = assay: Antidiabetic activity in po dosed lean C57BL/6J mouse assessed as reduction in glucose level administered 90 mins prior to glucose challenge measured for 60 mins by IPGTT; assay type: functional; settings: 2.5 h, time 150 min

Structure (SMILES) | Efficacy [1] [%] | EC50 [2] [nM] | ED50 (Mus musculus) [mg/kg]
Cc1nc[nH]c1-c1nnc([C@H]2CCC[C@@H](N(C)C(=O)c3cccc(Cl)c3)C2)[nH]1 | 120 | < 120 | 
Cc1ncc(-c2nnc([C@H]3CCC[C@@H](N(C)C(=O)c4cccc(C(F)(F)F)c4)C3)[nH]2)[nH]1 | 120 | < 120 | 
Cc1ncc(-c2nnc([C@H]3CCC[C@@H](N(C)C(=O)c4cccc(C(F)(F)F)c4)C3)[nH]2)n1C | 120 | < 120 | 
Cc1nc[nH]c1-c1nnc([C@H]2CCC[C@@H](N(C)C(=O)c3cccc(C(F)(F)F)c3)C2)[nH]1 | 120 | < 120 | 
Cc1ncn(CC(F)F)c1-c1nnc([C@H]2CCC[C@@H](N(C)C(=O)c3cccc(C(F)(F)F)c3)C2)[nH]1 | 120 | < 120 | 
CN(C(=O)c1cccc(C(F)(F)F)c1)[C@@H]1CCC[C@H](c2nnc(-c3cnc4n3CCOC4)[nH]2)C1 | 120 | < 120 | 
Cc1ncn(C)c1-c1nnc([C@H]2CCC[C@@H](N(C)C(=O)c3cccc(C(F)(F)F)c3)C2)[nH]1 | 120 | < 120 | 
COCCn1cnc(C)c1-c1nnc([C@H]2CCC[C@@H](N(C)C(=O)c3cccc(Cl)c3)C2)[nH]1 | 120 | < 120 | 
Cc1nc[nH]c1-c1nnc([C@H]2CCC[C@@H](N(C)C(=O)c3cccc(OC(F)(F)F)c3)C2)[nH]1 | 120 | < 120 | 
Cc1ncn(C)c1-c1nnc([C@H]2CCC[C@@H](N(C)C(=O)c3cccc(Cl)c3)C2)[nH]1 | 110 |  | 0.25
Cc1ncn(C)c1-c1nnc([C@@H]2CCC[C@H](N(C)C(=O)c3cccc(Cl)c3)C2)[nH]1 | 120 |  | 
Cc1ncc(-c2nnc([C@H]3CCC[C@@H](N(C)C(=O)c4cccc(Cl)c4)C3)[nH]2)n1C | 120 | < 120 | 
